{"source": "paper PMC6161602", "about": "“Synthesis and characterisation of (Z)-styrylbenzene derivatives as potential selective anticancer agents” (Journal of Enzyme Inhibition and Medicinal Chemistry, 2018)", "assay_type_in_all_cases": "cell-based, human", "key": {"L-02 normal liver cell": {"tested_on": "L-02 normal liver cell", "assay": "MTT cell growth inhibition assay, L-02 (normal)", "conditions": "Homo sapiens, 48 h incubation, L-02 normal cells", "from_the_text": "(§1) All human cell lines were used in this study. MGC-803 late-stage differentiation gastric cancer cell, A549 lung cancer cell, HepG2 hepatoma cell, AGS gastric cancer cell, BEL-7402 liver cancer cell, HCT-116 colorectal cancer cell, HeLa cervical cancer cell, SGC-7901 early differentiation gastric cancer cell, L-02 normal liver cell, MCF-7 breast cancer cell, and MCF-10A normal breast cell were initially purchased from American Type Culture Collection (ATCC, Manassas, VA, USA). RPMI-1640 media, Dulbecco’s modified Eagle’s medium (DMEM), and foetal bovine serum (FBS) were provided from Gibco Company (Grand Island, NY, USA). The cells were maintained in DMEM or RPMI-1640, supplemented with 10% FBS, 100 IU/mL penicillin and […] (Grand Island, NY, USA), and at 37 °C in a humidified atmosphere containing 5% CO2.\n(§2) Cells were plated in 96-well plates at a density of 30–40% to ensure exponential growth throughout the experimental period, and then allowed to adhere for 1 day[21]. Next, the cells were treated with four serial concentrations (1, 10, 50, and 100 µM) of each compound. Taxol, CA-4, and CA-4P (phosphorylated form of CA-4) were used as positive controls. After 48 h incubation, MTT solution was added to each well at a final concentration of 2 mg/mL, and incubated for an additional 4 h. Next, the MTT solution was removed and 150 µL of dimethyl sulphoxide (DMSO)/well was added (Sigma-Aldrich, St Louis, MO, USA). The plates were shaken vigorously at RT to ensure complete solubilisation, and absorption at 492 nm was determined.\n(§3) According to standard protocol, preliminary in vitro anti-proliferative activities of the synthesised compounds were evaluated by MTT assay, using nine human cancer cell lines (MGC-803, A549, HepG2, AGS, BEL-7402, HCT116, HeLa, SGC-7901, and MCF-7) and two normal human cell lines (L-02 and MCF-10A), and compared with those of CA-4, CA-4P, and taxol."}, "[1]": {"tested_on": "MCF-10A normal breast cell", "assay": "MTT cell growth inhibition assay, MCF-10A (normal)", "conditions": "Homo sapiens, 48 h incubation, MCF-10A normal cells", "from_the_text": "as §1, §2, §3"}, "BEL-7402 cells [2]": {"tested_on": "BEL-7402 cells", "assay": "Colony formation assay", "conditions": "BEL-7402, exposure > 10 days, fitted from inhibition ratio of colony formation", "experimental": "A previously described colony formation assay was used[7] with slight modification. 1 × 10^4 BEL-7402 cells/well were seeded into 6-well plates and then stimulated with the indicated concentration of 6h, taxol, or DMSO. The plates were removed from incubation when colonies were large enough to count (>50 cells). Colonies were then fixed and stained with 1 × Giemsa solution, rinsed, allowed to dry, and counted. All the experiments were repeated independently at least three times. The LD50 value for 6h was determined using SigmaPlot II."}, "HepG2 hepatoma cell": {"tested_on": "HepG2 hepatoma cell", "assay": "MTT cell growth inhibition assay, HepG-2", "from_the_text": "as §1, §2, §3"}, "cyclin A": {"tested_on": "cyclin A", "assay": "Western blotting, cyclin A", "conditions": "BEL-7402, 12 h, immunoblot, dose-dependent", "experimental": "BEL-7402 cells were harvested in logarithmic growth phase and the adherent and floating cells were collected after 12 h of drug treatment. The collected cells were resuspended in cold RIPA buffer (100 mM NaCl, 100 mM Tris (pH7.4), 10% Triton X-100, 1 mM PMSF, pH7.5) with 0.1 µM leupetin protease inhibitor as well as 1 µg/mL pepstatin and cracked on ice for 30 min. Then according to the reference to did immunoblotting assay."}, "BEL-7402 cells [3]": {"tested_on": "BEL-7402 cells", "assay": "Analysis for cell cycle by flow cytometry", "conditions": "BEL-7402, 12 h incubation, concentration-dependent increase from-to (0.01, 0.05, 0.1 µM)", "experimental": "BEL-7402 cells were plated 6-well plates with 5.0 × 10^5 cells/well for overnight (O/N) and were synchronised at the G0 phase by serum starvation (0.1% FBS in RPMI-1640) for 24 h. Then the cells were incubated with 0.01, 0.05, 0.1 µM of 6h and 0.1 μM of taxol, respectively. Vehicle group was treated with 0.1% DMSO. Following 12 h of incubation, the cells were detached with 0.05% trypsin/5 mM EDTA and centrifuged at 1000 rpm for 10 min, and fixed in 70% ethanol at −20 °C for O/N. Then, the cells were subsequently analysed the cell cycle distribution by flow cytometry using a FACSCalibur flow cytometer with Cell Quest software (Becton-Dickinson, Franklin Lakes, NJ, USA), plotting at least 30,000 events per sample[22]. The percentage of cells in the G0/G1, S, and G2/M phases of the cell cycle were determined using the ModFit LT version 4.0 software package (Verity Software, Topsham, ME, USA)."}}}
{"smiles": "COc1cc(/C(C#N)=C/c2ccc(C)cc2)cc(OC)c1OC", "note": "[Compound 6h, (Z)-3-(p-Tolyl)-2-(3,4,5-trimethoxyphenyl)acrylonitrile]", "values": [{"measurement": "IC50", "setting": "L-02 normal liver cell", "value": "> 100", "unit": "µM"}, {"measurement": "IC50", "setting": "[1]", "value": "9.45 ± 5.25", "unit": "µM"}, {"measurement": "LD50 (colony formation)", "setting": "BEL-7402 cells [2]", "value": "0.056 ± 0.0047", "unit": "µM"}, {"measurement": "IC50", "setting": "HepG2 hepatoma cell; Homo sapiens, HepG2, MTT, 48 h incubation, HepG-2", "value": "3.74 ± 1.73", "unit": "µM"}, {"measurement": "SI IC50 (L-02/HepG-2)", "setting": "HepG2 hepatoma cell; selectivity index, IC50 (L-02)/IC50 (HepG-2)", "value": ">26.7"}, {"measurement": "expression of cyclin A compared with the vehicle group", "setting": "cyclin A", "value": "lower expression"}, {"measurement": "percentage of S cell population", "setting": "BEL-7402 cells [3]", "value": "4.44–19.35%"}]}
